Measured values: paper PMC3193053 (Analytical chemistry, 2011)

The molecules below were run on VHH T9 (assay: Cross-reactivity of the TCC competitive ELISA set up with VHH T9). Conditions: CR% = IC50 (TCC) ÷ IC50 (cross-reacting compound) × 100.
Type: binding, Lama glama
`O=C(Nc1ccc(Cl)c(Cl)c1)Nc1ccc(Cl)c(Cl)c1` [3,3′,4,4′-Tetrachloro-carbanilide] was tested, and the “CR (%)” value was 2.46%.
For `O=C(Nc1ccccc1)Nc1ccccc1` [Carbanilide], the “CR (%)” value was 1.78%.
With `O=C(Nc1ccc(Cl)cc1)Nc1ccc(Cl)c(C(F)(F)F)c1` [3-Trifluoromethyl-4,4′-dichlorocarbanilide] the “CR (%)” value was 6.97%.
With `CC(=O)N1CCC(NC(=O)Nc2ccc(OC(F)(F)F)cc2)CC1` [sEHi, #1555] the “CR (%)” value was <0.1%.
With `O=C(Nc1ccc(Cl)c(Cl)c1)Nc1ccc(Cl)cc1OS(=O)(=O)O` [Sulfate of 2′-OH TCC] the “CR (%)” value was <0.1%.
For `O=C(Nc1ccc(Cl)cc1)Nc1ccc(Cl)c(Cl)c1` [TCC, 3,4,4′-trichlorocarbanilide], the “CR (%)” value was 100%.
In the case of Dinuron, the “CR (%)” value is reported as <0.1%.
In the case of `Oc1cc(Cl)ccc1Oc1ccc(Cl)cc1Cl` [Triclosan], the “CR (%)” value is reported as <0.1%.
For `CS(=O)(=O)N1CCC(NC(=O)Nc2ccc(OC(F)(F)F)cc2)CC1` [sEHi, #1709], the “CR (%)” value was <0.1%.
`O=C(Nc1ccc(Cl)c(Cl)c1)Nc1ccc(Cl)cc1O` [2′-OH TCC] was tested, and the “CR (%)” value was 16.9%.
`O=C(Nc1ccc(Cl)cc1)Nc1ccc(Cl)cc1` [4,4′-Dichlorocarbanilide] was tested, and the “CR (%)” value was 13.3%.
